In data set [1] the target is T1, human VEGF-R2 receptor (KDR) (Homo sapiens, UniProt P35968).
T1 construct: expressed in transfected cells; host or cells: CHO cells
In words: VEGF-induced KDR autophosphorylation in transfected CHO cells, sandwich ELISA. As to conditions: Table 5; read-out: KDR, IC50 class. The data set is classed as cell-based. Here is the method: The compounds to be tested are then diluted in culture medium (without FCS, with 0.1% bovine serum albumin) and added to the cells. (Controls comprise medium without test compounds). After two hours' incubation at 37° C., recombinant VEGF is added; the final VEGF concentration is 20 ng/ml). After a further five minutes incubation at 37° C., the cells are washed twice with ice-cold PBS (phosphate-buffered saline) and immediately lysed in 100 μl lysis buffer per well. The lysates are then centrifuged to remove the cell nuclei, and the protein concentrations of the supernatants are determined using a commercial protein assay (BIORAD). The lysates can then either be immediately used or, if necessary, stored at −20° C. A sandwich ELISA is carried out to measure the VEGF-R2 phosphorylation: a monoclonal antibody to VEGF-R2 (for example Mab 1495.12.14; ProQinase, Freiburg, Germany) is immobilized on black ELISA plates (OptiPlate™ HTRF-96 from Packard). The plates are then washed and the remaining free protein-binding sites are saturated with 3% TopBlock® (Juro, Cat. # TB232010) in phosphate buffered saline with Tween 20® (polyoxyethylen(20)-sorbitane monolaurate, ICI/Uniquema) (PBST). The cell lysates (20 μg protein per well) are then incubated in these plates overnight at 4° C. together with an antiphosphotyrosine antibody coupled with alkaline phosphatase (PY20:AP from Zymed). […] The luminescence is measured in a Packard Top Count Microplate Scintillation Counter. The difference between the signal of the positive control (stimulated with VEGF) and that of the negative control (not stimulated with VEGF) corresponds to VEGF-induced VEGF-R2 phosphorylation (=100%). The activity of the tested substances is calculated as percent inhibition of VEGF-induced VEGF-R2 phosphorylation, wherein the concentration of substance that induces half the maximum inhibition is defined as the IC50 (inhibitory dose for 50% inhibition). […] Flt3 kinase inhibition is determined as follows: The baculovirus donor vector pFbacG01 (GIBCO) is used to generate a recombinant baculovirus expressing the amino acid region amino acids 563-993 of the cytoplasmic kinase domain of human Flt-3. The coding sequence for the cytoplasmic domain of Flt-3 is amplified by PCR from human c-DNA libraries (Clontech). The amplified DNA fragments and the pFbacG01 vector are made compatible for ligation by digestion with BamH1 and HindIII. Ligation of these DNA fragments results in the baculovirus donor plasmid Flt-3(1.1). The production of the viruses, the expression of proteins in Sf9 cells and the purification of the GST-fused proteins are performed as follows: Production of virus: Transfer vector (pFbacG01-Flt-3) containing the Flt-3 kinase domain is transfected into the DH10Bac cell line (GIBCO) and the transfected cells are plated on selective agar plates. Colonies without insertion of the fusion sequence into the viral genome (carried by the bacteria) are blue. Single white colonies are picked and viral DNA (bacmid) is isolated from the bacteria by standard plasmid purification procedures. Sf9 or Sf21 cells (American Type Culture Collection) are then transfected in flasks with the viral DNA using Cellfectin reagent. Determination of small scale protein expression in Sf9 cells: Virus containing media is collected from the transfected cell culture and used for infection to increase its titre. Virus containing media obtained after two rounds of infection is used for large-scale protein expression. For large-scale protein expression 100 cm^2 round tissue culture plates are seeded with 5×10^7 cells/plate and infected with 1 mL of virus-containing media (approx. 5 MOIs). After 3 days the cells are scraped off the plate and centrifuged at 500 rpm for 5 min. Cell pellets from 10-20, 100 cm^2 plates, are resuspended in 50 mL of ice-cold lysis buffer (25 mMTris-HCl, pH 7.5, 2 mM EDTA, 1% NP-40, 1 mM DTT, 1 mM PMSF). The cells are stirred on ice for 15 min and then centrifuged at 5000 rpms for 20 min. […]

Another data set addresses c-Src kinase (Homo sapiens, UniProt P12931). In words: c-Src kinase inhibition. The data set is classed as biochemical. The following applies: Table 5; read-out: c-scr, IC50 class. The text has this: An appropriate assay is described in Andrejauskas-Buchdunger et al., Cancer Res. 52, 5353-8 (1992).
Another data set has as its target Cdk1/cycB (UniProt P06493). In words: Cdk1/cycB kinase assay, histone H1 substrate. The format is biochemical, starfish. The following applies: Table 5; read-out: CDK1/B, IC50 class. The procedure, abridged:
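Active Cdk1/cycB was purified from starfish oocytes arrested in M phase with 1-methyladenine, using p9CKShs-sepharose. Reactions ran 20 min at ambient temperature and were stopped with EDTA. Phosphorylated product was captured on Immobilon P membranes, washed in H3PO4 and EtOH, and counted by scintillation.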

T1 sequence (P35968 20-1356): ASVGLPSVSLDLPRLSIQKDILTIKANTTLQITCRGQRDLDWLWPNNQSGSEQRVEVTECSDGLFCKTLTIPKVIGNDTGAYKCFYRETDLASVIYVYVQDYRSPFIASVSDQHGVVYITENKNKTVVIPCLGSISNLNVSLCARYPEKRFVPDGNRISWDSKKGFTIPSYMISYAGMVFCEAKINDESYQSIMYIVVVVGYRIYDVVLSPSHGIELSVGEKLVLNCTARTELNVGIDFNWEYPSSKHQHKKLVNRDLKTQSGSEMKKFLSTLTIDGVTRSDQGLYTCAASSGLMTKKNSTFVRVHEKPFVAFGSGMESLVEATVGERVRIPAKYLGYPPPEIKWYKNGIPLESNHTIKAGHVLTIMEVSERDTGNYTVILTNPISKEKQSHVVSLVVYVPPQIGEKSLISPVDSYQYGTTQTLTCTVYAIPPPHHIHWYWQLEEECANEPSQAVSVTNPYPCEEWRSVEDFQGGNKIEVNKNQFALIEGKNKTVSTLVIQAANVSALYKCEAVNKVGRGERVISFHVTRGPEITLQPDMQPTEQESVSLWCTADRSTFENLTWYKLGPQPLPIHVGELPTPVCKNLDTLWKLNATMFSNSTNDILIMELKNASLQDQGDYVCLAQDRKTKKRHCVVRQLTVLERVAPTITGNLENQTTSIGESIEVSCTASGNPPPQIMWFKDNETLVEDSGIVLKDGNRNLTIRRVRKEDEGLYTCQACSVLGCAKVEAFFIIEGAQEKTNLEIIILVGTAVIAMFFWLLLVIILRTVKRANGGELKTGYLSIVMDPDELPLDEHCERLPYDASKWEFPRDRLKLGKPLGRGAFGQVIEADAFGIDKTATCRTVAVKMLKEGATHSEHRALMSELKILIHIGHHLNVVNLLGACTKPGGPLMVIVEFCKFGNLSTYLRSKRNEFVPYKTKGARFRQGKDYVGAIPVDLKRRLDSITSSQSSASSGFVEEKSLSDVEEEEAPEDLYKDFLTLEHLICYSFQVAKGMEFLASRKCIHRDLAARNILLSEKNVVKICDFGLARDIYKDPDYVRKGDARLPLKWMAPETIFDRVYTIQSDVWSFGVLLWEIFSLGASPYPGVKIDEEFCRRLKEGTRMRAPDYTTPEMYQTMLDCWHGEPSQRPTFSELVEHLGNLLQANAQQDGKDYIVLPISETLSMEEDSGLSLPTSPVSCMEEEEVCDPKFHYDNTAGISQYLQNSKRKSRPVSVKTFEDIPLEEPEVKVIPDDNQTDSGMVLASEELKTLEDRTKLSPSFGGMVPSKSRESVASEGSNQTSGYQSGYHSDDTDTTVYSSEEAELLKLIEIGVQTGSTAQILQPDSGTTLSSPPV
Chain of c-Src kinase (P12931 whole entry): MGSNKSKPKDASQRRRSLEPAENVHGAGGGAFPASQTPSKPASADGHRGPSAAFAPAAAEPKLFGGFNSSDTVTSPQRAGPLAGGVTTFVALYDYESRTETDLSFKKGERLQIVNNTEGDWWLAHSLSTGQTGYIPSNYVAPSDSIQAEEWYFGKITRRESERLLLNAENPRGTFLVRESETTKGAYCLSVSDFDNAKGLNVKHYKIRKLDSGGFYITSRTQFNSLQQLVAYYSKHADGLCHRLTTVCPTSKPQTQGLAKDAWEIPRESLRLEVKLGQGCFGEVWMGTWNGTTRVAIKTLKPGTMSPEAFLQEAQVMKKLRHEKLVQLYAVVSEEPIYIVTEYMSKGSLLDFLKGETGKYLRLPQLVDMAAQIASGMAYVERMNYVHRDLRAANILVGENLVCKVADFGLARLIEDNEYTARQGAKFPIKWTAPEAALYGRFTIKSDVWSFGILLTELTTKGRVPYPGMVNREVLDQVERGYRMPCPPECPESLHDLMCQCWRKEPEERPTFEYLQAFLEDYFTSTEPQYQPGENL

Broadly, the melting point is the temperature, or range, at which the solid turns liquid. Compound `Cc1nc2c(-c3cccc(N4CCN(CCO)CC4)c3)cnn2c(N)c1-c1ccc(F)c(F)c1` [Example 101, 2-(4-{3-[7-Amino-6-(3,4-difluoro-phenyl)-5-methyl-pyrazolo[1,5-a]pyrimidin-3-yl]-phenyl}-piperazin-1-yl)-ethanol] gave a melting point of 172 to 174 °C. The IC50 in data set [1] lay in the range of 1 to 10 µM. Moreover, at c-Src kinase, the IC50 was less than 1 µM. Further, on Cdk1/cycB, the IC50 was greater than 10 µM.
The corresponding values for `COc1ccc(-c2cnn3c(N)c(-c4ccc(F)c(Cl)c4)c(C)nc23)cc1OC` [Example 94, 6-(3-Chloro-4-fluoro-phenyl)-3-(3,4-dimethoxy-phenyl)-5-methyl-pyrazolo[1,5-a]pyrimidin-7-ylamine] are 235 to 238 °C, greater than 10 µM, less than 1 µM and greater than 10 µM.
The corresponding values for `CN1CCN(c2cccc(-c3cnn4c(N)c(-c5cccc(Br)c5)cnc34)c2)CC1` [Example 86, 6-(3-Bromo-phenyl)-3-[3-(4-methyl-piperazin-1-yl)-phenyl]-pyrazolo[1,5-a]pyrimidin-7-ylamine] are 195.3 to 197.2 °C, less than 1 µM, less than 1 µM and greater than 10 µM.
The corresponding values for `Cc1nc2c(-c3cccc(N4CCN(C)CC4)c3)cnn2c(N)c1-c1cccc(Cl)c1` [Example 72, 6-(3-Chloro-phenyl)-5-methyl-3-[3-(4-methyl-piperazin-1-yl)-phenyl]-pyrazolo[1,5-a]pyrimidin-7-ylamine] are 110 to 115 °C, less than 1 µM, less than 1 µM and greater than 10 µM.
In turn, `Cc1nc2c(-c3cccc(N4CCC(N5CCCC5)CC4)c3)cnn2c(N)c1-c1ccc(F)cc1` [Example 103, 6-(4-Fluoro-phenyl)-5-methyl-3-[3-(4-pyrrolidin-1-yl-piperidin-1-yl)-phenyl]-pyrazolo[1,5-a]pyrimidin-7-ylamine] displayed a melting point of 244 to 249 °C. Besides, the IC50 in data set [1] was greater than 10 µM. For the same compound, the IC50 on c-Src kinase is less than 1 µM. Moreover, the IC50 on Cdk1/cycB is greater than 10 µM.

(Values after patent US20090099167A1, “Organic compounds” (Novartis Institutes for Biomedical Research, priority 2004, published 2009).)
